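Briefly, cells in 96-well plates were exposed to five compound concentrations for 48 h, and endpoints were estimated by linear interpolation. Here, GI50 denotes the concentration required for 50% inhibition of growth. TGI marks complete inhibition of growth.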
How the values were obtained:
Assay in all cases: NCI tumour cell line growth inhibition, 48 h
MOLT-4 leukemia = system: MOLT-4 leukemia
MDA-MB-231 breast = system: MDA-MB-231 breast
HCC-2998 colon = system: HCC-2998 colon
SK-OV-3 ovarian = system: SK-OV-3 ovarian
DU-145 prostate = system: DU-145 prostate
U251 CNS = system: U251 CNS
SF-268 CNS = system: SF-268 CNS
OVCAR-3 ovarian = system: OVCAR-3 ovarian
OVCAR-5 ovarian = system: OVCAR-5 ovarian
COLO 205 colon = system: COLO 205 colon

| Structure (SMILES) | GI50 (MOLT-4 leukemia) | TGI (MOLT-4 leukemia) | GI50 (MDA-MB-231 breast) | TGI (MDA-MB-231 breast) | GI50 (HCC-2998 colon) | TGI (HCC-2998 colon) | GI50 (SK-OV-3 ovarian) | TGI (SK-OV-3 ovarian) | GI50 (DU-145 prostate) | TGI (DU-145 prostate) | GI50 (U251 CNS) | TGI (U251 CNS) | GI50 (SF-268 CNS) | TGI (SF-268 CNS) | GI50 (OVCAR-3 ovarian) | TGI (OVCAR-3 ovarian) | GI50 (OVCAR-5 ovarian) | TGI (OVCAR-5 ovarian) | GI50 (COLO 205 colon) | TGI (COLO 205 colon) |
| --- | --- | --- | --- | --- | --- | --- | --- | --- | --- | --- | --- | --- | --- | --- | --- | --- | --- | --- | --- | --- |
| CC1=CC(C)=N/C(=N/S(=O)(=O)c2cc(C)c(Cl)cc2SCc2ccccc2)NN1 | > 100 µM | > 100 µM | > 100 µM | > 100 µM | > 100 µM | > 100 µM | > 100 µM | > 100 µM | > 100 µM | > 100 µM | 82.3 µM | > 100 µM | 78.1 µM | > 100 µM | > 100 µM | > 100 µM | > 100 µM | > 100 µM | > 100 µM | > 100 µM |
| CC(NNC(=S)N1CCN(c2ccccn2)CC1)c1nccc2ccccc12 (stereo not drawn) |  | 10.3 µM |  | 16.8 µM |  | 14.7 µM |  | 15.1 µM |  | 13.8 µM |  | 14.3 µM |  | 14.5 µM |  | 13.2 µM |  | 14.2 µM |  | 5.93 µM |
| COC(=O)Nc1nc2ccc(C(=O)c3cccc(I)c3)cc2[nH]1 | 0.0609 µM | 10.6 µM | 0.166 µM | 5.52 µM | 0.208 µM | 30.6 µM | 0.257 µM | 28.6 µM | 0.0861 µM | 1.76 µM | 0.0559 µM | 12.3 µM | 0.18 µM | 17.5 µM | 0.0332 µM | 0.207 µM | 0.173 µM | 17 µM | 0.0472 µM | 4.55 µM |
| COc1ccc(C(=O)/C=C/c2ccc(OCc3cccc(C(F)(F)F)c3)c(OC)c2)cc1OC | 27.7 µM | > 1000 µM | 51.1 µM | > 1000 µM | 131 µM | > 1000 µM | 221 µM | > 1000 µM | 72.6 µM | > 1000 µM | 61.4 µM | > 1000 µM | 76.6 µM | > 1000 µM | 48.4 µM | > 1000 µM | 292 µM | > 1000 µM | 61.6 µM | > 1000 µM |
| O=C1/C=C/[C@@H](O)[C@@H]2C[C@@H](O)C[C@H]2/C=C/CCC[C@H](CCO)O1 | 0.358 µM |  | 0.182 µM | 0.391 µM | 0.227 µM |  | 0.287 µM | > 100 µM | 0.426 µM | > 100 µM | 0.382 µM | > 100 µM | 0.0782 µM | > 73 µM | 0.193 µM | 0.5 µM | 0.396 µM | > 100 µM | 0.104 µM | 0.241 µM |
| O=[N+]([O-])c1ccc2c(c1)C(N1CCN(CCO)CC1)Cc1ccc(F)cc1S2 (stereo not drawn) |  | 9.21 µM |  | 28.2 µM |  | 8.83 µM |  | 31 µM |  | 29 µM |  | 24.3 µM |  | 31.4 µM |  | 54.6 µM |  | 26.9 µM |  | 28.7 µM |
| CCOC(=O)N1CCC(N=C2CSc3nnc(-c4cc(C(F)(F)F)cc(C(F)(F)F)c4)n3N2)CC1 | 2.57 µM | 5.31 µM | 1.81 µM | 3.56 µM | 2.25 µM | 4.78 µM | 3.21 µM | 8.71 µM | 2.39 µM | 6.17 µM | 1.77 µM | 3.53 µM | 2.23 µM | 4.86 µM | 2.01 µM | 3.59 µM | 1.95 µM | 4 µM | 2.17 µM | 3.93 µM |
| Nc1ccc(C#Cc2ccccc2C#CCCCCO)cc1 | 16.5 µM | 35.1 µM | 14 µM | 27.5 µM | 16.6 µM | 31.3 µM | 18.1 µM | 34.7 µM | 18.4 µM | 35.1 µM | 11.1 µM | 23.1 µM | 19.9 µM | 40.4 µM | 23 µM | 47.2 µM | 16.4 µM | 31.3 µM | 16.1 µM | 30.1 µM |
| Cc1ccsc1C(NC(=O)c1ccccc1)c1cc(Cl)c2cccnc2c1O (stereo not drawn) | 0.622 µM | 34.6 µM | 0.675 µM | 18.7 µM | 0.775 µM | 16.2 µM | 0.617 µM | 7.96 µM | 0.869 µM | 14.2 µM | 0.318 µM | 10.4 µM | 0.6 µM | 12.1 µM | 0.354 µM | 12.1 µM | 2.67 µM | 42 µM | 0.318 µM | 10.6 µM |
| COc1cc2ncnc(Oc3ccc(NC(=O)Nc4ccc(CN5CCOCC5)c(C(F)(F)F)c4)c4ccccc34)c2cc1OC | 0.199 µM | 2.08 µM | 1.2 µM | 6.32 µM | 4.8 µM | 18.8 µM | 0.254 µM | 1.26 µM | 1.59 µM | 12.4 µM | 1.05 µM | 4.01 µM | 0.453 µM | 8.94 µM | 1.17 µM | 6.15 µM | 1.15 µM | 6.95 µM | 0.558 µM | 3.91 µM |
| Cc1cc(I)cc(CN(C)CCCN2CCC(C)CC2)c1O | 10 µM | 26.4 µM | 15.1 µM | 32 µM | 12.4 µM | 25.4 µM | 15.9 µM | 31.1 µM | 15.5 µM | 28.8 µM | 15.2 µM | 29.8 µM | 14.6 µM | 27.7 µM | 13.7 µM | 28.1 µM | 15.6 µM | 34.4 µM | 13.4 µM | 28 µM |
| C[C@@H]1CC[C@@H]2[C@@H]1[C@H](OC(=O)/C=C/C1CCCCC1)[C@]1(C3CCCCC3)C[C@@H](OC(=O)CO)[C@@]2(C)O1 | 13.7 µM | 31.3 µM | 15.4 µM | 29.6 µM | 16 µM | 29.6 µM | 15 µM | 27.7 µM | 14.3 µM | 27.3 µM | 13.7 µM | 26.1 µM | 0.859 µM | 19.7 µM | 13.8 µM | 26.7 µM | 15.8 µM | 29.9 µM | 15.4 µM | 30 µM |
| OC(c1cc(C(F)(F)F)nc2c(Cl)cc(Cl)cc12)C1CCCCN1 (stereo not drawn) |  | 22.9 µM |  | > 44.8 µM |  | > 100 µM |  | 25.2 µM |  | 20 µM |  | > 48.3 µM |  | > 40.7 µM |  | 12.8 µM |  | > 50.4 µM |  | 9.29 µM |
| CC1(C)OCC2OC(n3cnc4c(N)nc(Cl)nc43)C(OS(C)(=O)=O)C2O1 (stereo not drawn) |  | > 100 µM |  | > 100 µM |  | > 100 µM |  | > 100 µM |  | > 100 µM |  | > 100 µM |  | > 100 µM |  | > 100 µM |  | > 100 µM |  | > 100 µM |
